In ChEMBL document CHEMBL1152934, “Quinazolindione derivatives as potent 5-HT3A receptor antagonists” (Bioorg Med Chem, 2009) one finds IC50 data, which are given here for 18 compounds.

Structures are written as SMILES.

Sequence of Voltage-dependent T-type calcium channel subunit alpha-1G (O43497 whole entry): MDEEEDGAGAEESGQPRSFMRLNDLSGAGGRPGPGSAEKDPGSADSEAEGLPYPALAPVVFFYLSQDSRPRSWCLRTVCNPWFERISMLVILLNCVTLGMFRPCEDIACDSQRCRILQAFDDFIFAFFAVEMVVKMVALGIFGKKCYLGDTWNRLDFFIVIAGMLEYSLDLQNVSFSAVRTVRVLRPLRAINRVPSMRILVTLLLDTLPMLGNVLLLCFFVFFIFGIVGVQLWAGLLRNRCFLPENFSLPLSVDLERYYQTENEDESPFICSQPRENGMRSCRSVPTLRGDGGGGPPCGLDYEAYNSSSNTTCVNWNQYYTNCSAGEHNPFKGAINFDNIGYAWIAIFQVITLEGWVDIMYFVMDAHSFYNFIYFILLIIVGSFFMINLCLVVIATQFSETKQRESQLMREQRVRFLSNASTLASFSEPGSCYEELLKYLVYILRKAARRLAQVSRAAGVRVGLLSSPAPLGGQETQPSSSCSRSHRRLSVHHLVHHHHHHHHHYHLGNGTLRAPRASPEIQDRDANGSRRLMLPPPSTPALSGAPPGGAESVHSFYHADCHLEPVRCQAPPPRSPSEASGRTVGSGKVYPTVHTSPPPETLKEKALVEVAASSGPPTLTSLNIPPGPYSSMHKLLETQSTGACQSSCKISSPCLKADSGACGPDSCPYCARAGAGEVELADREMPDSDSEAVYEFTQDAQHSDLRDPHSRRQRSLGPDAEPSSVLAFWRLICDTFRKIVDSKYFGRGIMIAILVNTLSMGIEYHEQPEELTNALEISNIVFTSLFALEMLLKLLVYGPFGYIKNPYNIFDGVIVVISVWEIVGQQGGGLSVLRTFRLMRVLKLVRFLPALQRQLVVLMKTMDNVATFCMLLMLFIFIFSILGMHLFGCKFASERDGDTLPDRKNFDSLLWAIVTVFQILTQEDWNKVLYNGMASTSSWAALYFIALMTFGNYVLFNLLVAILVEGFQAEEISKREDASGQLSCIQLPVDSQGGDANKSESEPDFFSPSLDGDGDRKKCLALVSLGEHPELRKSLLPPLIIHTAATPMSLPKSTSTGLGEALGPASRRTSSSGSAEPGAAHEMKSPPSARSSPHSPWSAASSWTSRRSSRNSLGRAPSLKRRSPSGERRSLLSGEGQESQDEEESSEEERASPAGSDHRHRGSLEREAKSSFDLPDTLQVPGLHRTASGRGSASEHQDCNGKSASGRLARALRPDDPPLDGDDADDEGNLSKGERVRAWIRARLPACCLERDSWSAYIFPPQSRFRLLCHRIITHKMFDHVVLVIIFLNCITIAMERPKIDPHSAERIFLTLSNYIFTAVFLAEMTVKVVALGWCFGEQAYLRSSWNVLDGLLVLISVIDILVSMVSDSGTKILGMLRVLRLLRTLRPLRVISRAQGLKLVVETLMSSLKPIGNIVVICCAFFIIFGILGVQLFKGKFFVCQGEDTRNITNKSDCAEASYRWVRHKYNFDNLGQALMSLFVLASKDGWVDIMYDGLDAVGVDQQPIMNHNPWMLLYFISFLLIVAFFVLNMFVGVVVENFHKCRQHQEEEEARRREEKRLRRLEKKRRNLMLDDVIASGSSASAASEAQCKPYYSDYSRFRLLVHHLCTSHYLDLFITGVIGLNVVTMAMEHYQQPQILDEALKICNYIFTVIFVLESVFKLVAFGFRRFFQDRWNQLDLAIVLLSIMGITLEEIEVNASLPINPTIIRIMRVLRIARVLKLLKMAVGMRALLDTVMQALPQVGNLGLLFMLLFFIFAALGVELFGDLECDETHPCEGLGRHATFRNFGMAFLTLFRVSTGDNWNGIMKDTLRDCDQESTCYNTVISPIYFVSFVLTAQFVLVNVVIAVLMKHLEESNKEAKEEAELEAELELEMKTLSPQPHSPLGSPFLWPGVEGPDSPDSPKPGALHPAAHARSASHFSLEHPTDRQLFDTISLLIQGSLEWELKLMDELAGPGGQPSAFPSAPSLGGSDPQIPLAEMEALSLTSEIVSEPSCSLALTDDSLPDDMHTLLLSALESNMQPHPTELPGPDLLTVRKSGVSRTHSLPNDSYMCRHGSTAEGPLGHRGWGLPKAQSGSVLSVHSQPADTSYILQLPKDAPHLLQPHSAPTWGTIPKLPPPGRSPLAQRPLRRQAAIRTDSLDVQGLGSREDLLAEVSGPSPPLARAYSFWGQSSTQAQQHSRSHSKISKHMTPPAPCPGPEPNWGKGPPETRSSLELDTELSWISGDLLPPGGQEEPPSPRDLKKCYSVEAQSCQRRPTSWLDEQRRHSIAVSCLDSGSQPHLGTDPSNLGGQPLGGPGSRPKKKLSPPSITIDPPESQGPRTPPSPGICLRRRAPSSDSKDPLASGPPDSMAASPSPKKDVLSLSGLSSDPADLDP

The test has as its target Voltage-dependent T-type calcium channel subunit alpha-1G (Homo sapiens, UniProt O43497). The test can be described thus: Antagonist activity against T-type calcium channel alpha1G. Type of test: functional.
With `COc1ccccc1Cn1c(=O)[nH]c2cc(C(=O)NCCN3CCCCC3)ccc2c1=O`, the IC50 entry was “Not Active”.

With `COc1ccc(Cn2c(=O)[nH]c3cc(C(=O)NCCN4CCCCC4)ccc3c2=O)cc1`, the IC50 result is given as “Not Active”.

In the case of `O=C(NCCN1CCCCC1)c1ccc2c(=O)n(Cc3ccccc3Cl)c(=O)[nH]c2c1`, the IC50 result is reported as “Not Active”.

On to `COc1cccc(Cn2c(=O)[nH]c3cc(C(=O)NCCN4CCCCC4)ccc3c2=O)c1`, for which the IC50 result is “Not Active”.

`O=C(NCCN1CCOCC1)c1ccc2c(=O)n(Cc3ccc(F)cc3)c(=O)[nH]c2c1`: the IC50 entry is given as “Not Active”.

Turning to `CC1CCCCN1CCNC(=O)c1ccc2c(=O)n(Cc3ccc(Cl)cc3)c(=O)[nH]c2c1` (stereo not drawn), the IC50 result is listed as “Not Active”.

Consider `CC1CCCCN1CCCNC(=O)c1ccc2c(=O)n(Cc3ccc(Cl)cc3)c(=O)[nH]c2c1` (stereo not drawn), for which the IC50 result is on record as “Not Active”.

As to `O=C(NCCCN1CCOCC1)c1ccc2c(=O)n(Cc3ccc(Cl)cc3)c(=O)[nH]c2c1`, the IC50 result was “Not Active”.

Turning to `O=C(NCCN1CCCCC1)c1ccc2c(=O)n(-c3ccc(F)cc3)c(=O)[nH]c2c1`, the IC50 result is recorded as “Not Active”.

On to `CC1CCCCN1CCCNC(=O)c1ccc2c(=O)n(C3CCCCC3)c(=O)[nH]c2c1` (stereo not drawn), for which the IC50 result was “Not Active”.

On to `O=C(NCCN1CCOCC1)c1ccc2c(=O)n(Cc3ccc(Cl)cc3)c(=O)[nH]c2c1`, for which the IC50 entry was “Not Active”.

In the case of `COc1ccc(-n2c(=O)[nH]c3cc(C(=O)NCCN4CCCCC4)ccc3c2=O)cc1`, the IC50 entry is “Not Active”.

`Cn1c(=O)[nH]c2cc(C(=O)NCCN3CCCCC3)ccc2c1=O`: the IC50 entry is “Not Active”.

Consider `O=C(NCCN1CCCCC1)c1ccc2c(=O)n(Cc3ccccc3F)c(=O)[nH]c2c1`, for which the IC50 result is reported as “Not Active”.

Regarding `O=C(NCCN1CCCCC1)c1ccc2c(=O)n(C3CCCCC3)c(=O)[nH]c2c1`, the IC50 entry was “Not Active”.

In the case of `CCCn1c(=O)[nH]c2cc(C(=O)NCCN3CCCCC3)ccc2c1=O`, the IC50 result is on record as “Not Active”.

Take `O=C(NCCN1CCOCC1)c1ccc2c(=O)n(-c3ccc(F)cc3)c(=O)[nH]c2c1`: the IC50 result was “Not Active”.

In the case of `CCC1CCCCN1CCCNC(=O)c1ccc2c(=O)n(Cc3ccc(Cl)cc3)c(=O)[nH]c2c1` (stereo not drawn), the IC50 entry is “Not Active”.
